In patent publication US8337792B2, “Aromatic imine compounds for use as sulfide scavengers” (priority 2007, dated 2012):

Key:
[1] = Comparison with conventional treatments against H2S dissolved in water (Table 2); details: 1,000 ppm H2S in water; for Lead acetate paper test, Head space / Lead acetate paper test, Liquid: paper colour
From the text: (§1) An overall comparison of the features of the present aromatic imine compounds and conventional compositions is shown in Table 3.

[2] = Comparison of features, performance and handling (Table 3)
From the text: as §1

[3] = Comparison of features, safety and hazard (Table 3)
From the text: as §1

[4] = Solubility in water, oil, fuel and solvents; format: physicochemical

Row | Structure (SMILES) | Residual H2S, I2 Titration [1] | Residual H2S, Outside Lab [1] | Lead acetate paper test, Head space [1] | Lead acetate paper test, Liquid [1] | Deodorizes [2] | Stable [2] | Strong bonding to H2S [2] | Reactivity* ([2]; 1 is highest) | Reactive at ambient temperature ([2]; ambient temperature) | Carcinogenicity [3] | Mutagenicity [3] | RCRA Hazardous Waste [3] | Safe to use [3] | Sensitizing chemical [3] | Toxicity [3] | Formaldehyde ([3]; formaldehyde in the product) | Oil Solubility [4]
1 | O=CC=O [Glyoxal] | 350 ppm | 240 ppm | brown/ | yellow/ | no | no | no | 1 | yes | yes | yes | yes | some | yes | no | 100 ppm | no
2 | OCCN1CN(CCO)CN(CCO)C1 [Triazine] | 660 ppm | 728 ppm | yellow/ | brown |  |  |  |  |  |  |  |  |  |  |  |  | 
